This passage reports TGI and GI50 results from PubChem BioAssay (NCI).

SMILES strings stand for the structures.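 How tested: cells in 96-well plates exposed to compound for 48 hours at five concentrations. Here, GI50 denotes the concentration required for 50% inhibition of growth. TGI: concentration producing complete growth inhibition.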

Test systems include OVCAR-5 ovarian; NCI-H226 lung; OVCAR-4 ovarian; SK-MEL-28 melanoma; CCRF-CEM leukemia; SW-620 colon; NCI-H460 lung; SNB-75 CNS; NCI-H23 lung; SF-295 CNS.
Holding throughout (assay): NCI anticancer screen, dose series, 48 h

Take `CC1=CC(C)C/C=C/C2C3OC3(C)C(C)C3C(Cc4c[nH]c5ccccc45)NC(=O)C23C(=O)C=CC(=O)C1O` (stereo not given): the TGI with OVCAR-5 ovarian is 27.5 µM; with NCI-H226 lung, 32 µM; in the test with OVCAR-4 ovarian, 24.3 µM; in the test with SK-MEL-28 melanoma, 38.2 µM; in the test with CCRF-CEM leukemia, 3.02 µM; in the test on SW-620 colon, 25.9 µM. Further, the TGI in the test on NCI-H460 lung was 27.6 µM; in the test on SNB-75 CNS, 8.44 µM; in the test on NCI-H23 lung, 28.5 µM; in the test on SF-295 CNS, 27.8 µM.
Regarding `CN(C)CCCNC(=O)c1cc2[nH]c3c(cnc4ccc([N+](=O)[O-])cc43)c(=O)c2n1C`, the GI50 was 17.8 µM with OVCAR-5 ovarian; 49.8 µM in the test on NCI-H226 lung; 14 µM with OVCAR-4 ovarian; 19.7 µM in the test with SK-MEL-28 melanoma; 14.5 µM in the test on CCRF-CEM leukemia; 17.4 µM in the test on SW-620 colon. Moreover, the GI50 was 13.3 µM in the test with NCI-H460 lung, 15.5 µM in the test on SNB-75 CNS, 20.5 µM in the test on NCI-H23 lung and 26.9 µM in the test with SF-295 CNS. Besides, the TGI with OVCAR-5 ovarian is 31.6 µM; in the test on NCI-H226 lung, more than 100 µM; in the test on OVCAR-4 ovarian, 31.6 µM; in the test on SK-MEL-28 melanoma it was 33.9 µM; in the test on CCRF-CEM leukemia, 30.6 µM; with SW-620 colon it was 34.5 µM. Further, the TGI in the test on NCI-H460 lung was 26 µM; in the test with SNB-75 CNS, 28.9 µM; in the test on NCI-H23 lung it was 44.1 µM; in the test on SF-295 CNS, 51.4 µM.
On to `CC(=O)N(C)c1ccc(Nc2cc(C)[nH]c3ccc4ncnc4c23)cc1`, for which the TGI in the test with OVCAR-5 ovarian stood at 29.4 µM; in the test on NCI-H226 lung, 19.5 µM; in the test with OVCAR-4 ovarian it was 34 µM; with SK-MEL-28 melanoma it was 36.5 µM; with CCRF-CEM leukemia it was 34.9 µM; in the test with SW-620 colon it was 22.1 µM. Also, the TGI stood at 12.3 µM with NCI-H460 lung, 30 µM in the test with SNB-75 CNS, 28 µM in the test with NCI-H23 lung and 39.1 µM in the test on SF-295 CNS.
As for `O=c1cnn(C/C=C/CBr)c(=O)[nH]1`, the TGI in the test on OVCAR-5 ovarian came out at 31.2 µM; with NCI-H226 lung it was 34.8 µM; in the test with OVCAR-4 ovarian it was 48 µM; in the test with SK-MEL-28 melanoma it was 41.9 µM; with CCRF-CEM leukemia, 47.6 µM; with SW-620 colon, 28.8 µM. Further, the TGI with NCI-H460 lung came out at 36.5 µM; with SNB-75 CNS, 33.4 µM.
`COc1ccc(C2COc3cc(OC(C)=O)c(OC(C)=O)cc3C2)cc1` (stereo not given): the TGI in the test with OVCAR-5 ovarian was 51.7 µM; with NCI-H226 lung, 52.9 µM; with OVCAR-4 ovarian it was 36.8 µM; in the test with SK-MEL-28 melanoma, 46.9 µM; in the test on CCRF-CEM leukemia it was 16.4 µM; in the test with SW-620 colon, 46.5 µM. In addition, the TGI in the test on NCI-H460 lung amounted to 41.7 µM; in the test with SNB-75 CNS, 25.8 µM; in the test on NCI-H23 lung it was 63.1 µM; with SF-295 CNS, 38.7 µM.
As to `O=C(O)c1ccc(Nc2c3ccccc3nc3ccccc23)cc1`, the TGI with OVCAR-5 ovarian, in the test with NCI-H226 lung, with OVCAR-4 ovarian, in the test with SK-MEL-28 melanoma, in the test with CCRF-CEM leukemia and with SW-620 colon was more than 100 µM in each case. Also, the TGI with NCI-H460 lung, with SNB-75 CNS, in the test with NCI-H23 lung and with SF-295 CNS was more than 100 µM each time.
For the molecule `c1nc(OCC2CCCCC2)c2[nH]cnc2n1`, the TGI with OVCAR-5 ovarian, in the test with NCI-H226 lung, in the test on OVCAR-4 ovarian, with SK-MEL-28 melanoma, with CCRF-CEM leukemia and in the test on SW-620 colon was more than 100 µM throughout. The TGI with NCI-H460 lung, with SNB-75 CNS, in the test on NCI-H23 lung and in the test with SF-295 CNS was more than 100 µM throughout.
`CC(C)(C)[Si](OC1CC(n2cnc3c(N)ncnc32)OC1CO)(c1ccccc1)c1ccccc1` (stereo not given): the TGI in the test on OVCAR-5 ovarian was 34.8 µM; in the test with NCI-H226 lung it was 27.1 µM; with OVCAR-4 ovarian it was 28.5 µM; with SK-MEL-28 melanoma, 41.1 µM; with CCRF-CEM leukemia it was more than 100 µM; in the test on SW-620 colon, 34.1 µM. Besides, the TGI is 30.7 µM with NCI-H460 lung, 28 µM in the test on NCI-H23 lung and 30.5 µM with SF-295 CNS.
Take `O=C(O)CC(CC(=O)O)C(=O)O`: the TGI with OVCAR-5 ovarian, in the test with NCI-H226 lung, with OVCAR-4 ovarian, with SK-MEL-28 melanoma, with CCRF-CEM leukemia and with SW-620 colon was more than 100 µM in each case. Also, the TGI with NCI-H460 lung, in the test with SNB-75 CNS, with NCI-H23 lung and in the test with SF-295 CNS was more than 100 µM in each case.
`Cc1cc(C)n(C(=C(C(Cl)=C(Cl)Cl)[N+](=O)[O-])n2nc(C)cc2C)n1`: the TGI was 22.8 µM with OVCAR-5 ovarian; 26 µM with NCI-H226 lung; 7.47 µM in the test with OVCAR-4 ovarian; 19.7 µM in the test with SK-MEL-28 melanoma; 5.8 µM in the test on CCRF-CEM leukemia; 18.2 µM with SW-620 colon. In addition, the TGI was 12.7 µM with NCI-H460 lung, 18.1 µM in the test with SNB-75 CNS, 12.8 µM in the test on NCI-H23 lung and 14.8 µM with SF-295 CNS.
Take `O=C1C(Cl)N(c2ccc(Cl)cc2)C1c1c[nH]c2ccccc12` (stereo not given): the TGI was more than 100 µM with OVCAR-4 ovarian; 96.5 µM with SK-MEL-28 melanoma; more than 100 µM with CCRF-CEM leukemia; 68.8 µM in the test on SW-620 colon; 30.1 µM in the test on NCI-H460 lung; more than 100 µM in the test on SNB-75 CNS. The TGI came out at 62.8 µM in the test with NCI-H23 lung and 31.5 µM in the test on SF-295 CNS.
Turning to `COc1ccc(N2C(=O)/C(=C(\C)c3cc4ccccc4oc3=O)N=C2c2cc([N+](=O)[O-])ccc2Cl)cc1`, the TGI in the test with OVCAR-5 ovarian, with NCI-H226 lung, with OVCAR-4 ovarian, in the test with SK-MEL-28 melanoma, in the test with CCRF-CEM leukemia and in the test on SW-620 colon was more than 100 µM in each case. The TGI in the test on NCI-H460 lung, with SNB-75 CNS, in the test on NCI-H23 lung and with SF-295 CNS was more than 100 µM throughout.
Turning to `C/C(=N\NC(=S)N1CCCCC1)c1nc2ncccc2[nH]1`, the TGI was 76.4 µM in the test on OVCAR-5 ovarian; 26.7 µM in the test with NCI-H226 lung; more than 100 µM in the test with OVCAR-4 ovarian; 37.7 µM with SK-MEL-28 melanoma; 17.2 µM in the test on CCRF-CEM leukemia; more than 100 µM with SW-620 colon. Moreover, the TGI with NCI-H460 lung is 49.8 µM; in the test with SNB-75 CNS, more than 100 µM; in the test with NCI-H23 lung, 57.5 µM; in the test on SF-295 CNS it was 88.7 µM.
